Assay results taken from patent US20210196627A1, “SYSTEMS FOR ENTERIC DELIVERY OF THERAPEUTIC AGENTS” (Lyndra, Inc., priority 2018, published 2021).

Experiment: Memantine bioanalysis in plasma after duodenal placement of stellate system (LC-MS/MS)
Assay type: in vivo, beagle dogs
From the text: Six male beagle dogs (each weighing ˜10 kg) were anesthetized and intubated, and stellate-shaped systems bearing memantine drug arms were placed endoscopically through the pylorus into the duodenum. Each stellate system contained steel beads at the tips of the drug arms which facilitated X-ray imaging for confirming successful duodenal placement.
X-rays were collected daily to monitor residence time in the small intestine. Blood samples were collected through Day 10 of the study and processed to plasma for quantitation of memantine using an LC-MS/MS assay. The dogs were monitored for the duration of the study for safety.

Compound: CC12CC3CC(C)(C1)CC(N)(C3)C2 [memantine]
- time for which sustained release of memantine was measurable (dog plasma, stellate system placed in duodenum, blood sampled through Day 10): 7 days
- Tmax (male, beagle, memantine in dog plasma, stellate system placed endoscopically in duodenum): 8 h
- exposure from the small intestine (memantine in dog plasma, stellate system placed in duodenum): good exposure
